Assay results published in ChEMBL document CHEMBL2073840, “Inhibitory effects of a cyclosporin derivative, SDZ PSC 833, on transport of doxorubicin and vinblastine via human P-glycoprotein” (Jpn J Cancer Res, 1998).

Molecular target: ATP-dependent translocase ABCB1 (Homo sapiens, UniProt P08183)
Assay: TP_TRANSPORTER: transepithelial transport (basal to apical) in MDR1-expressing LLC-PK1 cells
Assay type: functional, cell-based
Settings: pig

Chain of ATP-dependent translocase ABCB1 (P08183 whole entry): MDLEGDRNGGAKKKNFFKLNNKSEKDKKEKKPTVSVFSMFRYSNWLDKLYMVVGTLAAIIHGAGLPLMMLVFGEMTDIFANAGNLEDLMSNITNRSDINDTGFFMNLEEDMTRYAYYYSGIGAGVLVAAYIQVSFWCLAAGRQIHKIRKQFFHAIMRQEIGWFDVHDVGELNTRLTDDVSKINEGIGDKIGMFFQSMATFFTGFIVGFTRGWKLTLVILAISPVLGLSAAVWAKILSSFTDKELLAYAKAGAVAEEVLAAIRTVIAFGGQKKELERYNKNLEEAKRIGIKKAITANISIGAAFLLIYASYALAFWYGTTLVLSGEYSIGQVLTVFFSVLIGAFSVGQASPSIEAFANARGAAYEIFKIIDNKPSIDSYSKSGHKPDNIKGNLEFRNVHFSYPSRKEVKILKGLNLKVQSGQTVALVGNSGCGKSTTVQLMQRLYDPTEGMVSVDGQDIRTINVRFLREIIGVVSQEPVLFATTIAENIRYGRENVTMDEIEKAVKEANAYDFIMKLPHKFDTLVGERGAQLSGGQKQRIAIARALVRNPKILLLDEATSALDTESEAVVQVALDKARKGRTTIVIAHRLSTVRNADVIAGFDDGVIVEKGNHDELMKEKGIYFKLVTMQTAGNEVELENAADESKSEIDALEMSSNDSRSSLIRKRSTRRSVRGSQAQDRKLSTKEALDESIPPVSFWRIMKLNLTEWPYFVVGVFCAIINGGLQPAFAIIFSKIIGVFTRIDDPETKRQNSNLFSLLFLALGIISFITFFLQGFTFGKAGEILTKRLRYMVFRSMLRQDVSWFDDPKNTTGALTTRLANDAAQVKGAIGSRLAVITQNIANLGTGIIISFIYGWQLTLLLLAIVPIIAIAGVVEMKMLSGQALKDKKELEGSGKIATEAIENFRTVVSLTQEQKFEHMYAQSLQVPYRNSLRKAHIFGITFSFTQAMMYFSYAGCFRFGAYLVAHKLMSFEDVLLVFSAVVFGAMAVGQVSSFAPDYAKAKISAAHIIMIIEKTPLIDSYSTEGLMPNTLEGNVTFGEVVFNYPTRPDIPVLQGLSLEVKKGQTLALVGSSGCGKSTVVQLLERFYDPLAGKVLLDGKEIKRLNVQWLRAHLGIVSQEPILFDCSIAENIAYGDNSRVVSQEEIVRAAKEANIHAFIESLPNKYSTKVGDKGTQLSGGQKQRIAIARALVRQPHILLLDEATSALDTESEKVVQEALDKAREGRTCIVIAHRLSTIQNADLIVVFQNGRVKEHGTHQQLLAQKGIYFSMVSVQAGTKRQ

Activity	SMILES
is not a substrate [-]	C/C=C/C[C@@H](C)C(=O)[C@H]1C(=O)N[C@@H](C(C)C)C(=O)N(C)CC(=O)N(C)[C@@H](CC(C)C)C(=O)N[C@@H](C(C)C)C(=O)N(C)[C@@H](CC(C)C)C(=O)N[C@@H](C)C(=O)N[C@H](C)C(=O)N(C)[C@@H](CC(C)C)C(=O)N(C)[C@@H](CC(C)C)C(=O)N(C)[C@@H](C(C)C)C(=O)N1C [VALSPODAR]
substrate [+]	COc1cccc2c1C(=O)c1c(O)c3c(c(O)c1C2=O)C[C@@](O)(C(=O)CO)C[C@@H]3O[C@H]1C[C@H](N)[C@H](O)[C@H](C)O1 [DOXORUBICIN]
